Results on 3 molecules are retold here after ChEMBL document CHEMBL1681686, “Discovery of N-methyl-1-(1-phenylcyclohexyl)methanamine, a novel triple serotonin, norepinephrine, and dopamine reuptake inhibitor” (Bioorg Med Chem Lett, 2011).

Holding throughout (type): ADME, organism-based
Holding throughout (conditions): in vivo

For data set [1], the system named is Plasma. Kind of data set: Drug uptake in mouse plasma at 10 mg/kg, po. On the set-up: dose 10 mg/kg, route oral.
The subject of data set [2] is Brain. Kind of data set: Drug uptake in mouse brain at 30 mg/kg, po. Also noted: dose 30 mg/kg, route oral.
Data set [3] deals with Brain. Kind of data set: Drug uptake in mouse brain at 10 mg/kg, po. On the set-up: dose 10 mg/kg, route oral.
Data set [4] deals with Plasma. The data set is described as follows: Drug uptake in mouse plasma at 3 mg/kg, po. On the set-up: dose 3 mg/kg, route oral.
In data set [5] the test system is Brain. The data set is described as follows: Drug uptake in mouse brain at 3 mg/kg, po. On the set-up: dose 3 mg/kg, route oral.
For data set [6], the system named is Plasma. The data set is described as follows: Drug uptake in mouse plasma at 30 mg/kg, po. On the set-up: dose 30 mg/kg, route oral.

Take `CNCC1(c2ccc(Cl)c(Cl)c2)CCCCC1.Cl`: the Drug uptake came out at 50 ng/mL in data set [1]; 7464 ng/g in data set [2]; 2166 ng/g in data set [3]; 11 ng/mL in data set [4]; 546 ng/g in data set [5]; 227 ng/mL in data set [6].

Consider `CNCC1(c2ccc(Cl)c(Cl)c2)CCCCC1`, for which, in data set [2], the Drug uptake result is recorded as “Active”.

`CNCC1(c2ccc3ccccc3c2)CCCCC1.Cl`: the Drug uptake in data set [1] was 21 ng/mL; in data set [2], 2175 ng/g; in data set [3] it was 306 ng/g; in data set [4], 8 ng/mL; in data set [5], 123 ng/g; in data set [6] it was 120 ng/mL.
